The text below walks through data of publication PMC11067034 (Proceedings of the National Academy of Sciences of the …, 2024).

The target in the experiment is T1, human CTF18-RFC (ATPγS sites in CTF18/A, RFC2/B, RFC5/C, RFC4/D) (Homo sapiens, UniProt P35249+P35250+P40937+Q8WVB6).
T1 construct: gene CHTF18; heptameric CTF18-RFC2-5-DCC1-CTF8 from baculovirus/insect cells, intact complex; DCC1 and CTF8 invisible in maps; mixed with human PCNA (from E. coli BL21) and two-tailed DNA; with Replication factor C subunit 3; Sister chromatid cohesion protein DCC1; Chromosome transmission fidelity protein 8 homolog; Proliferating cell nuclear antigen
Nature of the experiment: cryo-EM structure. In kind it is binding. As to conditions: Mg2+-coordinated; ATPase sites of CTF18, RFC2, RFC5 and RFC4 (arginine fingers from adjacent subunits); 0.5 mM ATPγS, PCNA and DNA, 1 mM Mg acetate, pH 7.5, room temperature.

As for `Nc1ncnc2c1ncn2[C@@H]1O[C@H](COP(=O)(O)OP(=O)(O)OP(O)(O)=S)[C@@H](O)[C@H]1O` [ATPγS], the cryo-EM structure result is given as “We identified four ATPγS molecules in the AAA+ nucleotide binding pockets of subunits CTF18/A, RFC2/B, RFC5/C”.
